Columns and labels:
[1] = tested on: 786-0; test: inhibition of the growth of renal cancer(786-0) cell line; type: functional; details: Homo sapiens
[2] = tested on: A549; test: inhibition of the growth of non-small-cell lung cancer (A549/ATCC) cell line; type: functional; details: Homo sapiens
[3] = tested on: A549; test: Inhibition of the growth of non-small-cell lung cancer (A549/ATCC) cell line at 0.01 uM; type: functional; details: Homo sapiens
[4] = tested on: CAKI-1; test: inhibition of the growth of renal cancer(CAKI-1) cell line; type: functional; details: Homo sapiens
[5] = tested on: DU-145; test: inhibition of the growth of prostate cancer(DU-145) cell line; type: functional; details: Homo sapiens
[6] = tested on: HCT-15; test: Inhibition of the growth of colon cancer(HCT-15) cell line at 0.01 uM; type: functional; details: Homo sapiens
[7] = tested on: HCT-15; test: inhibition of the growth of colon cancer(HCT-15) cell line; type: functional; details: Homo sapiens
[8] = tested on: HCT-116; test: inhibition of the growth of colon cancer(HCT116) cell line; type: functional; details: Homo sapiens
[9] = tested on: HCT-116; test: Inhibition of the growth of colon cancer(HCT116) cell line at 0.01 uM; type: functional; details: Homo sapiens
[10] = tested on: IGROV-1; test: inhibition of the growth of ovarian cancer(IGROVI) cell line; type: functional; details: Homo sapiens
[11] = tested on: KM12; test: inhibition of the growth of colon cancer(KM-12) cell line; type: functional; details: Homo sapiens
[12] = tested on: MOLT-4; test: inhibition of the growth of leukemia (MOLT-4) cell line; type: functional; details: Homo sapiens
[13] = tested on: NCI/ADR-RES; test: inhibition of the growth of breast cancer (MCF7/ADR-RES) cell line; type: functional; details: Homo sapiens
[14] = tested on: M14; test: inhibition of the growth of melanoma cancer (M14) cell line; type: functional; details: Homo sapiens
[15] = tested on: MDA-N; test: inhibition of the growth of breast cancer(MDA-N) cell line; type: functional; details: Homo sapiens
[16] = tested on: MDA-N; test: Inhibition of the growth of breast cancer(MDA-N) cell line at 0.01 uM; type: functional; details: Homo sapiens
[17] = tested on: MDA-MB-435; test: Inhibition of the growth of breast cancer (MDA-MB-435) cell line at 0.01 uM; type: functional; details: Homo sapiens
[18] = tested on: MDA-MB-435; test: inhibition of the growth of breast cancer (MDA-MB-435) cell line; type: functional; details: Homo sapiens
[19] = tested on: MCF7; test: inhibition of the growth of breast cancer (MCF-7) cell line; type: functional; details: Homo sapiens
[20] = tested on: NCI-H460; test: inhibition of the growth of non-small-cell lung cancer (NCI-H460) cell line; type: functional; details: Homo sapiens
[21] = tested on: NCI-H522; test: inhibition of the growth of non-small-cell lung cancer (NCI-H522) cell line; type: functional; details: Homo sapiens
[22] = tested on: NCI-H322M; test: inhibition of the growth of non-small-cell lung cancer (NCI-H322M) cell line; type: functional; details: Homo sapiens
[23] = tested on: OVCAR-8; test: inhibition of the growth of ovarian cancer(OVCAR-8) cell line; type: functional; details: Homo sapiens
[24] = tested on: NCI-H460; test: Inhibition of the growth of non-small-cell lung cancer (NCI-H460) cell line at 0.01 uM; type: functional; details: Homo sapiens
[25] = tested on: NCI-H23; test: inhibition of the growth of non-small-cell lung cancer (NCI-H23) cell line; type: functional; details: Homo sapiens
[26] = tested on: NCI-H23; test: Inhibition of the growth of non-small-cell lung cancer (NCI-H23) cell line at 0.01 uM; type: functional; details: Homo sapiens
[27] = tested on: RPMI-8226; test: Inhibition of the growth of leukemia (RPMI-8226) cell line at 0.01 uM; type: functional; details: Homo sapiens
[28] = tested on: RPMI-8226; test: inhibition of the growth of leukemia (RPMI-8226) cell line; type: functional; details: Homo sapiens
[29] = tested on: SF-268; test: Inhibition of the growth of CNS cancer(SF-268) cell line at 0.01 uM; type: functional; details: Homo sapiens
[30] = tested on: SF-268; test: inhibition of the growth of CNS cancer(SF-268) cell line; type: functional; details: Homo sapiens
[31] = tested on: SF-295; test: inhibition of the growth of CNS cancer(SF-295) cell line; type: functional; details: Homo sapiens
[32] = tested on: SF-295; test: Inhibition of the growth of CNS cancer(SF-295) cell line at 0.01 uM; type: functional; details: Homo sapiens
[33] = tested on: SNB-19; test: inhibition of the growth of CNS cancer(SNB-19) cell line; type: functional; details: Homo sapiens
[34] = tested on: SNB-19; test: Inhibition of the growth of CNS cancer(SNB-19) cell line at 0.01 uM; type: functional; details: Homo sapiens
[35] = tested on: SF-539; test: inhibition of the growth of CNS cancer(SF-539) cell line; type: functional; details: Homo sapiens
[36] = tested on: SR; test: inhibition of the growth of leukemia(SR) cell line; type: functional; details: Homo sapiens
[37] = tested on: SK-MEL-5; test: inhibition of the growth of melanoma cancer (SK-MEL-5) cell line; type: functional; details: Homo sapiens
[38] = tested on: SK-MEL-5; test: Inhibition of the growth of melanoma cancer (SK-MEL-5) cell line at 0.01 uM; type: functional; details: Homo sapiens
[39] = tested on: UO-31; test: inhibition of the growth of renal cancer(UO-31) cell line; type: functional; details: Homo sapiens
[40] = tested on: UO-31; test: inhibition of the growth of renal cancer(UO-31) cell line at 0.01 uM; type: functional; details: Homo sapiens
[41] = tested on: IGROV-1; test: Inhibition of the growth of ovarian cancer(IGROVI) cell line at 0.01 uM; type: functional; details: Homo sapiens
[42] = tested on: OVCAR-8; test: Inhibition of the growth of ovarian cancer(OVCAR-8) cell line at 0.01 uM; type: functional; details: Homo sapiens
[43] = molecular target: T1, Bifunctional dihydrofolate reductase-thymidylate synthase (Toxoplasma gondii, UniProt Q07422)
T1 sequence (Q07422 whole entry): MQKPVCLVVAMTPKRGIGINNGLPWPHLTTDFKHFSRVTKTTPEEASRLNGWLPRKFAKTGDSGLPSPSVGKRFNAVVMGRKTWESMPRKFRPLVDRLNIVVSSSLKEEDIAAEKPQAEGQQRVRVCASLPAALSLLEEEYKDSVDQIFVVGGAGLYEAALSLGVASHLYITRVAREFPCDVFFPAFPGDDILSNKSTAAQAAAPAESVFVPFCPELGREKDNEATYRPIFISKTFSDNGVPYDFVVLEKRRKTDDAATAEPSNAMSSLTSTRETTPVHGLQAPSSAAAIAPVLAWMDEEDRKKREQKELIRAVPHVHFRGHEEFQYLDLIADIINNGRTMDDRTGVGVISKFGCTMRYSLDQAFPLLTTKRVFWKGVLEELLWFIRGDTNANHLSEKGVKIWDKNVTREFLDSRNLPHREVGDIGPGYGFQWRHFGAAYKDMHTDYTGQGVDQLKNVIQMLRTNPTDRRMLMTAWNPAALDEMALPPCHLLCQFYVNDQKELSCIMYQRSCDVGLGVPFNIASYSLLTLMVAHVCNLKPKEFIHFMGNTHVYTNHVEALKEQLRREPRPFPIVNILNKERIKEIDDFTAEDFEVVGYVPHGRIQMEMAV
Description: Inhibitory activity against dihydrofolate reductase (DHFR) from Toxoplasma gondii

[44] = molecular target: T2, Dihydrofolate reductase (Pneumocystis carinii, UniProt P16184)
T2 sequence (P16184 whole entry): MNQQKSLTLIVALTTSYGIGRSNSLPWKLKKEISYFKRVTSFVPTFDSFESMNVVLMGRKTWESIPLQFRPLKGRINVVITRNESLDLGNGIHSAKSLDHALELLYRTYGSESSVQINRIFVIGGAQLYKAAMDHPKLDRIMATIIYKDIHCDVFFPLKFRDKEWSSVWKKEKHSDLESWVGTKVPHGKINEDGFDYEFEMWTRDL
Description: Inhibitory activity against dihydrofolate reductase (DHFR) from Pneumocystis carinii

[45] = molecular target: T3, Dihydrofolate reductase (Rattus norvegicus, UniProt Q920D2)
T3 sequence (Q920D2 whole entry): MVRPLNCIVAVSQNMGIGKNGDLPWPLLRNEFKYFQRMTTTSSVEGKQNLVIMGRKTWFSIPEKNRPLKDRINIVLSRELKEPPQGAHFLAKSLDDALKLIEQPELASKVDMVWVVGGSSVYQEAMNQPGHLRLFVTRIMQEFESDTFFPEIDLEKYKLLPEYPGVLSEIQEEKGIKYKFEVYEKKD
Description: Inhibitory activity against dihydrofolate reductase (DHFR) from rat liver

GI50 [1]: 20 nM
GI50 [2]: < 10 nM
GI50 [5]: 220 nM
GI50 [7]: < 10 nM
GI50 [8]: < 10 nM
GI50 [12]: 40 nM
GI50 [18]: < 10 nM
GI50 [19]: 40 nM
GI50 [20]: < 10 nM
GI50 [21]: 30 nM
GI50 [22]: 11000 nM
GI50 [23]: < 10 nM
GI50 [25]: < 10 nM
GI50 [28]: < 10 nM
GI50 [37]: < 10 nM
IC50 [44]: 21 nM
IC50 [45]: 3.7 nM
Structure (SMILES): COc1cc(N(C)c2ccc3nc(N)nc(N)c3n2)cc(OC)c1OC
inhibition at 0.01 µM [3]: 67%
GI50 [4]: 10 nM
inhibition at 0.01 µM [6]: 57%
inhibition at 0.01 µM [9]: 76%
GI50 [10]: < 10 nM
GI50 [11]: 40 nM
GI50 [13]: 10 nM
GI50 [14]: 20 nM
GI50 [15]: < 10 nM
inhibition at 0.01 µM [16]: 58%
inhibition at 0.01 µM [17]: 56%
inhibition at 0.01 µM [24]: 79%
inhibition at 0.01 µM [26]: 51%
inhibition at 0.01 µM [27]: 56%
inhibition at 0.01 µM [29]: 61%
GI50 [30]: < 10 nM
GI50 [31]: < 10 nM
inhibition at 0.01 µM [32]: 53%
GI50 [33]: < 10 nM
inhibition at 0.01 µM [34]: 53%
GI50 [35]: 20 nM
GI50 [36]: 30 nM
inhibition at 0.01 µM [38]: 60%
GI50 [39]: < 10 nM
inhibition at 0.01 µM [40]: 65%
inhibition at 0.01 µM [41]: 52%
inhibition at 0.01 µM [42]: 57%
IC50 [43]: 7.6 nM
